Laboratory results taken from patent publication US20080311126A1, “Antisense Oligonucleotides Directed to Ribonucleotide Reducatase R2 and Uses Thereof in Combination Therapies for the Treatment of Cancer” (Genesense Technologies, Inc, priority 2004, published 2008).
Oligonucleotides are written 5' to 3', each unit as a sugar letter and its base; * is a phosphorothioate linkage, no mark a phosphodiester; rarer units and linkages stand in square brackets, end groups in braces. Plain capitals give the bases only. d = 2'-deoxy (DNA)

Columns and labels:
Assay in all cases: Relative colony forming efficiency (Example 17, Table 13)
Type in all cases: cell-based, human
[1] = tested on: T24 bladder cell carcinoma; details: averages of 2-8 determinations
Experimental: (§1) Colony forming efficiency was determined using standard protocols. […] The test oligonucleotides were added to cell cultures in the presence of 2.5 μg of DOTMA/DOPE (Lipofectin; Life Technologies, Inc.) for four hours. The oligonucleotide was tested at 0.2 μM unless otherwise indicated. Controls were the cultures treated with lipofectin but without the oligonucleotide. […] Surviving cells were visualized by methylene blue staining, and colonies were scored. In some experiments cell aliquots were removed from the culture and viability was determined using the trypan blue exclusion test. Results were analyzed as percent of surviving cells compared to control cells. To test the antisense effects of many of these sequences as phosphorthioate deoxyribonucleotides, they were examined in relative colony forming experiments conducted as described in Example 16 with a series of human tumour cell lines. The results (shown as % inhibition of colony forming ability) obtained with cancer cells derived from the bladder, breast, lung, colon, pancreas, prostate, liver and cervix, are shown in Table 13. The specific cell lines employed are as follows: […]

A549 lung cell carcinoma = details: averages of 2-8 determinations
Experimental: as §1

[2] = tested on: PC-3 prostrate cell adenocarcinoma; details: averages of 2-8 determinations
Experimental: as §1

[3] = tested on: MDA PaCa-2 pancreatic cell carcinoma; details: MIA PaCa-2 pancreatic cell carcinoma; averages of 2-8 determinations
Experimental: as §1

[4] = tested on: MDA-MB-231 breast cell adenocarcinoma; details: averages of 2-8 determinations
Experimental: as §1

GGCCCAGATCACCCCTAAAT (antisense dG*dG*dC*dC*dC*dA*dG*dA*dT*dC*dA*dC*dC*dC*dC*dT*dA*dA*dA*dT) [AS-II-2128-20]
Reduced relative colony forming efficiency, T24 (% inhibition of colony forming ability) [1]: 83.74% | Reduced relative colony forming efficiency, A549 (% inhibition of colony forming ability) (A549 lung cell carcinoma): 87.31% | Reduced relative colony forming efficiency, PC-3 (% inhibition of colony forming ability) [2]: 88.89% | Reduced relative colony forming efficiency, MIA PaCa-2 (% inhibition of colony forming ability) [3]: 39.23% | Reduced relative colony forming efficiency, MDA-MB-231 (% inhibition of colony forming ability) [4]: 91.3%

ATTAAAATCTGCGTTGAAGC (antisense dA*dT*dT*dA*dA*dA*dA*dT*dC*dT*dG*dC*dG*dT*dT*dG*dA*dA*dG*dC) [AS-II-1700-20]
Reduced relative colony forming efficiency, T24 (% inhibition of colony forming ability) [1]: 70.94% | Reduced relative colony forming efficiency, A549 (% inhibition of colony forming ability) (A549 lung cell carcinoma): 77.28% | Reduced relative colony forming efficiency, PC-3 (% inhibition of colony forming ability) [2]: 90.63% | Reduced relative colony forming efficiency, MIA PaCa-2 (% inhibition of colony forming ability) [3]: 34.52% | Reduced relative colony forming efficiency, MDA-MB-231 (% inhibition of colony forming ability) [4]: 30.75%

TGGCACCAACTGACTAATAT (antisense dT*dG*dG*dC*dA*dC*dC*dA*dA*dC*dT*dG*dA*dC*dT*dA*dA*dT*dA*dT) [AS-II-1976-20]
Reduced relative colony forming efficiency, PC-3 (% inhibition of colony forming ability) [2]: 88.16% | Reduced relative colony forming efficiency, MDA-MB-231 (% inhibition of colony forming ability) [4]: 89.6%

AACCGGAAAAGAAAATGCCT (antisense dA*dA*dC*dC*dG*dG*dA*dA*dA*dA*dG*dA*dA*dA*dA*dT*dG*dC*dC*dT) [AS-II-890-20]
Reduced relative colony forming efficiency, T24 (% inhibition of colony forming ability) [1]: 82.07% | Reduced relative colony forming efficiency, A549 (% inhibition of colony forming ability) (A549 lung cell carcinoma): 81.6% | Reduced relative colony forming efficiency, PC-3 (% inhibition of colony forming ability) [2]: 87.93% | Reduced relative colony forming efficiency, MIA PaCa-2 (% inhibition of colony forming ability) [3]: 66.02% | Reduced relative colony forming efficiency, MDA-MB-231 (% inhibition of colony forming ability) [4]: 88.2%

TTTTAACTGGCTGTGCTGGT (antisense dT*dT*dT*dT*dA*dA*dC*dT*dG*dG*dC*dT*dG*dT*dG*dC*dT*dG*dG*dT) [AS-II-1666-20]
Reduced relative colony forming efficiency, T24 (% inhibition of colony forming ability) [1]: 71.71% | Reduced relative colony forming efficiency, A549 (% inhibition of colony forming ability) (A549 lung cell carcinoma): 54.82% | Reduced relative colony forming efficiency, PC-3 (% inhibition of colony forming ability) [2]: 86.06% | Reduced relative colony forming efficiency, MIA PaCa-2 (% inhibition of colony forming ability) [3]: 49.72% | Reduced relative colony forming efficiency, MDA-MB-231 (% inhibition of colony forming ability) [4]: 26.71%

TGGCTGTGCTGGTTAAAGGA (antisense dT*dG*dG*dC*dT*dG*dT*dG*dC*dT*dG*dG*dT*dT*dA*dA*dA*dG*dG*dA) [AS-II-1659-20]
Reduced relative colony forming efficiency, T24 (% inhibition of colony forming ability) [1]: 74.09% | Reduced relative colony forming efficiency, A549 (% inhibition of colony forming ability) (A549 lung cell carcinoma): 54.7% | Reduced relative colony forming efficiency, PC-3 (% inhibition of colony forming ability) [2]: 81.56% | Reduced relative colony forming efficiency, MIA PaCa-2 (% inhibition of colony forming ability) [3]: 42.54% | Reduced relative colony forming efficiency, MDA-MB-231 (% inhibition of colony forming ability) [4]: 42.86%

TCGCCTACTCTCTTCTCAAA (antisense dT*dC*dG*dC*dC*dT*dA*dC*dT*dC*dT*dC*dT*dT*dC*dT*dC*dA*dA*dA) [AS-II-1278-20]
Reduced relative colony forming efficiency, T24 (% inhibition of colony forming ability) [1]: 65.42% | Reduced relative colony forming efficiency, PC-3 (% inhibition of colony forming ability) [2]: 85.31% | Reduced relative colony forming efficiency, MIA PaCa-2 (% inhibition of colony forming ability) [3]: 57.05% | Reduced relative colony forming efficiency, MDA-MB-231 (% inhibition of colony forming ability) [4]: 90.68%

TATCGCCGCCGTGAGTACAA (antisense dT*dA*dT*dC*dG*dC*dC*dG*dC*dC*dG*dT*dG*dA*dG*dT*dA*dC*dA*dA) [AS-II-1768-20]
Reduced relative colony forming efficiency, T24 (% inhibition of colony forming ability) [1]: 74.56% | Reduced relative colony forming efficiency, A549 (% inhibition of colony forming ability) (A549 lung cell carcinoma): 86.8% | Reduced relative colony forming efficiency, PC-3 (% inhibition of colony forming ability) [2]: 86.36% | Reduced relative colony forming efficiency, MIA PaCa-2 (% inhibition of colony forming ability) [3]: 60.36% | Reduced relative colony forming efficiency, MDA-MB-231 (% inhibition of colony forming ability) [4]: 91.56%
